We go through three molecules from US20230118497A1, “PYRAZOLE-CONTAINING POLYCYCLIC DERIVATIVE INHIBITOR, PREPARATION METHOD THEREFOR AND APPLICATION THEREOF” (Shanghai Hansoh Biomedical Co., Ltd., priority 2019, published 2023).

One may read the IC50 as the concentration needed to halve the response being measured. Broadly, the Tmax is the time at which the peak concentration occurs.

One series concerns P2X3/P2X2/3. The note with it: background; cited from earlier work.
The conditions of series [1]: cited from earlier work.
The conditions of series [2]: phase 2 RELIEF trial, patients with refractory chronic cough, any dose; cited from earlier work.
A further series deals with T1, 1321N1-hP2X3 receptor (Homo sapiens, UniProt P56373).
T1 construct: host or cells: 1321N1
T1 sequence (P56373 1-397): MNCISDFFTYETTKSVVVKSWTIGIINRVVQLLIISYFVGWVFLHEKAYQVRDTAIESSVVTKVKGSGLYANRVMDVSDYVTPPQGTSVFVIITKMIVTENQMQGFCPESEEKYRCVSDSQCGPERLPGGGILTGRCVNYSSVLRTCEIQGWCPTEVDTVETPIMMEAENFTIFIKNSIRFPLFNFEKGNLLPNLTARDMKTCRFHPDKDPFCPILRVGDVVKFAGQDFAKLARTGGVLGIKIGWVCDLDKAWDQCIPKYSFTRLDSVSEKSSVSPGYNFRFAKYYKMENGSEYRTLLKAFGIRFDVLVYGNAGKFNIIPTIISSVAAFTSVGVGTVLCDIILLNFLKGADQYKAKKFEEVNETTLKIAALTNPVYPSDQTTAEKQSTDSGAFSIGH
As to the kind of experiment: Calcium ion mobility (FLIPR) in cells stably expressing 1321N1-hP2X3 receptors. The format is cell-based. As to conditions: calcium signal, agonist at EC80. How it is done: Test Example 1. Determination of the Effect of the Compounds of the Present Invention on Calcium Ion Mobility in Cells Stably Expressing 1321N1-hP2X3 Receptors
To determine the inhibitory activity of the compounds on 1321N1-hP2X3 receptor.
Stably transfected cell line: 1321N1-hP2X3 (supplied by Shanghai ChemPartner Chemical Research Co., Ltd.).
(§1) Assay buffer: 1*HBSS+20 mM HEPES;
Cell culture medium: DMEM+10% FBS+75 µg/mL Hygromycin B+300 µg/mL G418;
(§2) Plating medium: DMEM+10% DPBS;
(§3) 0.5*Dye: 10*Dye stock+1.25 Probenecid+1*assay buffer+0.5 U/mL ATP hydrolytic enzyme;
(§4) 2. The cells were cultured to 70%-90% confluency in the cell culture medium at 37° C., 5% CO2. The medium was discarded, and the cells were added with 2 mL of Versene, and the cells were placed in an incubator at 37° C. for 2 to 5 min. The cells were collected by addition of 10 mL of plating medium and counted. The cells were seeded to the 384-well assay plate by addition of 50 μL solution (a density of 1×10^4 cells/well) to each well, and incubated for 16 to 24 hours (at least overnight).
(§5) 3. The medium was discarded, and 30 μL of 1× dye was added. The cells were incubated at 37° C. in the dark for 60 min.
(§6) 4. The compound powder was dissolved in DMSO to obtain a 20 mM stock solution. 180× compound with required concentration was formulated, and diluted in gradient for concentration points.
(§7) 5. Preparation of compound plate: 500 nL of 180× compound was transferred to the compound plate (source plate for FLIPR) using ECHO. 30 μL of assay buffer was added to each well, and the plate was shaken gently for 20 to 40 minutes.
(§8) 6. Determination: 15 μL of 3× compound was taken from each well and added to the cell plate. The samples were added by FLIPR instrument, and the calcium signals were detected. After 15 minutes, 22.5 μL of 3× agonist (EC80 concentration) was added to each well and the calcium signals were detected.
(§9) The calcium signal values were determined by FLIPR. The ratio of the 340/510 nm wavelength signals to 380/510 nm wavelength signals was used as the calculated results for each sampling time point in the experiment. The calculation of maximum minus minimum was derived from the ratio signal curve.
(§10) The percent inhibition rate and ten-point concentration data were fitted to the parametric nonlinear logistic equation by using GraphPad prism to calculate the IC50 values of the compounds.

The next series addresses T2, 1321N1-hP2X2/3 receptor (Homo sapiens, UniProt P56373+Q9UBL9).
T2 construct: host or cells: 1321N1
T2 sequence (P56373 1-397): T1 sequence (P56373 1-397)
T2 sequence (Q9UBL9 1-471): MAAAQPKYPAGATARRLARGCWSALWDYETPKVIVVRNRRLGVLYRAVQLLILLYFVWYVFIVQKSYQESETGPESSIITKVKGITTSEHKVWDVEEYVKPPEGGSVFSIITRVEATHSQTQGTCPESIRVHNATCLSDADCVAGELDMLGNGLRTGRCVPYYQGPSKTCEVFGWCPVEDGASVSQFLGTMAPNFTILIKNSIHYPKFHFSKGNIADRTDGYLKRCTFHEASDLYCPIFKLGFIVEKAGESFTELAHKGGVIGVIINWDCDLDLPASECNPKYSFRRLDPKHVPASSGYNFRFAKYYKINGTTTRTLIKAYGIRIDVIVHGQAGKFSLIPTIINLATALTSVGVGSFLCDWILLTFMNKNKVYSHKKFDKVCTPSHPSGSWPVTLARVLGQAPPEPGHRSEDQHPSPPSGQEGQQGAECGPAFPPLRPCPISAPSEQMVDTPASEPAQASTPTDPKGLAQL
As to the kind of experiment: Calcium ion mobility (FLIPR) in cells stably expressing 1321N1-hP2X2/3 receptors. It is filed as cell-based. The note with it: calcium signal, agonist at EC80. The method, then:
Test Example 2. Determination of the Effect of the Compounds of the Present Invention on Calcium Ion Mobility in Cells Stably Expressing 1321N1-hP2X2/3 Receptors
To determine the inhibitory activity of the compounds on 1321N1-hP2X2/3 receptor.
Stably transfected cell line: 1321N1-hP2X2/3 (supplied by Shanghai ChemPartner Chemical Research Co., Ltd.).
as §1
Cell culture medium: DMEM+10% FBS+75 μg/mL Hygromycin B+150 μg/mL G418;
as §2, §3, §4, §5, §6, §7, §8, §9, §10

Series [3] is described as follows: Pharmacokinetic assay in Balb/C mice. It is filed as in vivo. As to conditions: male, mouse, po, p.o. 5 mg/kg, plasma, 0.5% CMC-Na (1% Tween 80). The method, then: Test Example 3. Pharmacokinetic Assay in Balb/C Mice
Balb/C mice were used as test animals. The pharmacokinetic behavior of the compounds of Examples was studied in mouse body (plasma) by orally administration at a dose of 5 mg/kg.
Male Balb/C mice (6 mice per group), purchased from Shanghai Jiesijie Laboratory Animal Co., LTD, with Certificate No.: SCXK (Shanghai) 2013-0006 N0.311620400001794.
5 g of hydroxyethyl cellulose (HEC, CMC-Na, viscosity: 800-1200 Cps) was weighed and dissolved in 1000 mL of purified water, followed by addition of 10 g of Tween80.
After an overnight fast, male Balb/C mice were administered p.o. with the test compound at a dose of 5 mg/kg and a volume of 10 mL/kg.
0.04 mL of blood was taken from the orbit of the mouse before administration and at 0, 0.5, 1, 2, 4, 6, 8 and 24 hours after administration. The samples were stored in EDTA-K2 tubes, and centrifuged for 6 minutes at 4° C., 6000 rpm to separate the plasma. The plasma samples were stored at −80° C.
1) 160 μL of acetonitrile was added to 20 μL of the plasma sample for precipitation, and then the mixture was centrifuged at 3500×g for 5 to 20 minutes. 2) After the above process, 100 μL of the supernatant was taken to analyze the concentration of the test compound by LC/MS/MS.
2.7 Liquid Chromatography Analysis • Liquid chromatography condition: Shimadzu LC-20AD pump • Mass spectrometry condition: AB Sciex API 4000 mass spectrometer • Chromatographic column: phenomenex Gemiu 5 um C18 50×4.6 mm • Mobile phase: Eluent A was 0.1% formic acid in water, and Eluent B was acetonitrile • Flow rate: 0.8 mL/min • Elution time: 0-4.0 minutes the eluent is as follows:
The main parameters of pharmacokinetics were calculated by WinNonlin 8.2.

Read-outs that look alike come from different tables or passages of the source.

On to `CNC(=O)c1cc(F)c(-c2nc3cc(C)ccn3c2C[C@H]2CN(C(=O)OC)CCO2)c(F)c1` [BLU5937], for which the “selectivity to P2X3/P2X2/3” value in the series on P2X3/P2X2/3 is recorded as “high selectivity”. In series [1] (phase I clinical trials), the side effects entry is reported as “no side effects such as taste side effects appeared”. Also, the “primary endpoint of placebo-adjusted reduction in cough frequency” value in series [2] is “failed to achieve statistical significance”.
For the molecule `CC(C)(C)c1cc2n(CC(=O)Nc3ccc(F)cn3)c(=O)c3ccc(C(F)(F)F)nc3n2n1` [Example 30, 2-(2-(Tert-butyl)-5-oxo-8-(trifluoromethyl)pyrazolo[1,5-a]pyrido[3,2-e]pyrimidin-4(5H)-yl)-N-(5-fluoropyridin-2-yl)acetamide], the IC50 at 1321N1-hP2X3 receptor worked out at 0.0882 µM; on 1321N1-hP2X2/3 receptor, 14.5 µM. The AUC(0-t) in series [3] (read-out: Area under curve AUC0-t) turned out to be 10900 ng·h/mL. The MRT inf in series [3] (read-out: Average residence time MRT0-∞) stood at 2.16 h. In addition, in series [3] (read-out: Half life t1/2 (converted)), the half-life was 1.36 h. For the same molecule, the Tmax in series [3] (read-out: Peak time tmax) turned out to be 0.5 h. The Cmax in series [3] (read-out: Plasma concentration Cmax) was determined as 3550 ng/mL.
In the case of `COc1cc(C(C)C)c(Oc2cnc(N)nc2N)cc1S(N)(=O)=O` [MK-7264], the “selectivity to P2X3/P2X2/3” value in the series with P2X3/P2X2/3 is “low selectivity”. For the same molecule, in series [1] (clinical stage), the side effects result is “loss of taste”.
